Biological target: human recombinant PDE5 (Homo sapiens, UniProt O76074)
Assay: PDE5 inhibition, IMAP fluorescence polarization assay
Assay type: biochemical
Settings: for inhibition at 50 µM: read-out: PDE5 % inh at 50 (μM); for PDE5 inhibitory activity (in words): SAR statement vs parent compound

| SMILES | IC50 | inhibition at 50 µM | further results |
| --- | --- | --- | --- |
| COc1ccccc1C1CC(C(C)(C)C)=NN1c1ccc(C(=O)O)cc1 (centres unmarked) [Compound 14, 4-(3-(tert-Butyl)-5-(2-methoxyphenyl)-4,5-dihydro-1H-pyrazol-1-yl)benzoic acid] | > 50 µM | 49.8% | – |
| CC(C)(C)c1cc(-c2ccc(F)cc2)n(-c2ccc(C(=O)O)cc2)n1 [Compound 35, 4-(3-tert-Butyl-5-(4-fluorophenyl)-1H-pyrazol-1-yl) benzoic acid] | 31.3 µM | 75% | reduction in PDE5 inhibitory activity of pyrazole vs pyrazoline (compounds 34 and 35 compared to compounds 1 and 4): 3–4 times |
| CC(C)(C)C1=NN(c2ccc(C(=O)O)cc2)C(c2ccc3ccccc3c2)C1 (centres unmarked) [Compound 26, 4-(3-(tert-Butyl)-5-(naphthalen-2-yl)-4,5-dihydro-1H-pyrazol-1-yl)benzoic acid] | 21.8 µM | 80% | – |
| CC(C)(C)C1=NN(c2ccc(C(=O)O)cc2)C(c2ccccc2F)C1 (centres unmarked) [Compound 2, 4-(3-(tert-Butyl)-5-(2-fluorophenyl)-4,5-dihydro-1H-pyrazol-1-yl)benzoic acid] | – | 86.3% | – |
| CC(C)(C)C1=NN(c2ccc(C(=O)O)cc2)C(c2ccccc2Cl)C1 (centres unmarked) [Compound 5, 4-(3-(tert-Butyl)-5-(2-chlorophenyl)-4,5-dihydro-1H-pyrazol-1-yl)benzoic acid] | – | 100% | – |
| CC(C)(C)C1=NN(c2cccc(C(=O)O)c2)C(c2ccc(Cl)cc2)C1 (centres unmarked) [Compound 29, 3-(3-tert-Butyl-5-(4-chlorophenyl)-4,5-dihydro-1H-pyrazol-1-yl)benzoic acid] | – | 100% | fold reduction in PDE5 inhibitory potency compared to compound 7 (vs compound 7 (4-COOH, 4-chlorophenyl)): 3 fold |
| Cc1ccc(-c2cc(C(F)(F)F)nn2-c2ccc(S(N)(=O)=O)cc2)cc1 [Celecoxib, celecoxib, reference compound] | – | 66.5% | – |
| CC(C)(C)C1=NN(c2ccc(C(=O)O)cc2)C(c2cccs2)C1 (centres unmarked) [Compound 28, 4-(3-tert-Butyl-5-(thiophen-2-yl)-4,5-dihydro-1H-pyrazol-1-yl)benzoic acid] | – | 28.1% | PDE5 inhibitory activity (in words): detrimental to the activity |
| CC(C)(C)C1=NN(c2ccc(C(=O)O)cc2)C(c2c(Cl)cccc2Cl)C1 (centres unmarked) [Compound 13, 4-(3-(tert-Butyl)-5-(2,6-dichlorophenyl)-4,5-dihydro-1H-pyrazol-1-yl)benzoic acid] | 28.8 µM | 99.1% | – |
| CCOC(=O)c1ccc(N2N=C(C(C)(C)C)CC2c2ccc(Cl)cc2)cc1 (centres unmarked) [Compound 36, Ethyl 4-(3-tert-butyl-5-(4-chlorophenyl)-4,5-dihydro-1H-pyrazol-1-yl)benzoate] | – | 10.5% | PDE5 inhibitory activity (in words): diminished the PDE5 inhibitory activity |

Now from value to compound, other results behind:

| IC50 | inhibition at 50 µM | SMILES | further results |
| --- | --- | --- | --- |
| 3.7 µM | 94.4% | CC(C)(C)C1=NN(c2ccc(C(=O)O)cc2)C(c2cccc(F)c2)C1 (centres unmarked) [Compound 3, 4-(3-(tert-Butyl)-5-(3-fluorophenyl)-4,5-dihydro-1H-pyrazol-1-yl)benzoic acid] | – |
| – | 77.1% | CC(C)(C)C1=NN(c2ccc(C(=O)O)cc2)C(c2ccc(O)cc2)C1 (centres unmarked) [Compound 24, 4-(3-tert-Butyl-5-(4-hydroxyphenyl)-4,5-dihydro-1H-pyrazol-1-yl)benzoic acid] | – |
| 7.2 µM | 88% | CC(C)(C)C1=NN(c2ccc(C(=O)O)cc2)C(c2ccc(Br)cc2)C1 (centres unmarked) [Compound 10, 4-(5-(4-Bromophenyl)-3-tert-butyl-4,5-dihydro-1H-pyrazol-1-yl)benzoic acid] | – |
| – | 88% | CC(C)(C)C1=NN(c2ccc(C(=O)O)cc2)C(c2ccccc2)C1 (centres unmarked) [Compound 1, 4-(3-tert-Butyl-5-phenyl-4,5-dihydro-1H-pyrazol-1-yl)benzoic acid] | – |
| – | 95% | COc1ccc(C2CC(C(C)(C)C)=NN2c2ccc(C(=O)O)cc2)cc1 (centres unmarked) [Compound 15, 4-(3-tert-Butyl-5-(4-methoxyphenyl)-4,5-dihydro-1H-pyrazol-1-yl) benzoic acid] | fold increase in PDE5 inhibitory potency compared to methyl derivative 22 (vs compound 22): 4 fold |

Reference: article PMC7686114 (Bioorganic chemistry, 2020)
